In publication PMC4501179, “Tuning properties and dynamic range of type 1 vomeronasal receptors” (Frontiers in Neuroscience, 2015):

Target: T1, V1rj3 (Mus musculus, UniProt Q2TBB9)
T1 sequence (Q2TBB9 1-308): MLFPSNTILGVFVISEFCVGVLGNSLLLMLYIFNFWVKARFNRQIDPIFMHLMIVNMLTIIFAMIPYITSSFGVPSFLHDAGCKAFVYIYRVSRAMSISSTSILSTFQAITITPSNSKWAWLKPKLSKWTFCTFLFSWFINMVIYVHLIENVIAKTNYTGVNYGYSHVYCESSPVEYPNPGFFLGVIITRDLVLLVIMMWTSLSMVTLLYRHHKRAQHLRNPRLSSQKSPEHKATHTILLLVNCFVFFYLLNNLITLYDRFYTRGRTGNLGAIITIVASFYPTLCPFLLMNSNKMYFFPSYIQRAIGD
Experiment: GCaMP2 calcium imaging of VNO slices from transgenic mice ectopically expressing V1rj3

For `C[C@]12CC[C@@H]3c4ccc(OS(=O)(=O)O)cc4CC[C@H]3[C@@H]1CC[C@@H]2O` [E1100, 17β-estradiol 3-sulfate], which “GCaMP2 calcium imaging of VNO slices from transgenic mice ectopically expressing” value (“GCaMP2 calcium imaging of VNO slices” below) is on record?
Its value is 10^−5 M.

With `C[C@]12CC[C@H]3[C@@H](CC=C4C[C@@H](OS(=O)(=O)O)CC[C@@]43C)[C@@H]1CC[C@@H]2OS(=O)(=O)O` [A7864, 5-androsten-3β, 17β-diol-disulfate] as the compound, how does the “GCaMP2 calcium imaging of VNO slices” value read?
Its value is 10^−5 M.

`C[C@]12CC[C@@H]3c4ccc(O)cc4CC[C@H]3[C@@H]1CC[C@@H]2OS(=O)(=O)O` [E1103, 1,3, 5(10)-estratrien-3, 17β-diol 17-sulfate] was tested. Which “GCaMP2 calcium imaging of VNO slices” value did it give?
Its value is 10^−10 M.

`C[C@]12CC[C@@H]3c4ccc(OS(=O)(=O)O)cc4CC[C@H]3[C@@H]1CC[C@@H]2OS(=O)(=O)O` [E1050, 1, 3, 5(10)-estratrien-3, 17β-diol disulfate] was tested. Which “GCaMP2 calcium imaging of VNO slices” value did it give?
Its value is 10^−10 M.
